The data set has as its system mice. The conditions noted are these: mouse, in vivo, ip.

This passage reports LD50 results from patent US4598146A, “Compound, arugomycin” (Kirin Beer Kabushiki Kaisha, priority 1983, dated 1986).

The LD50 is the dose expected to kill half of the subjects tested. Low readings indicate a more toxic substance, high ones a less toxic substance. As for `COC(=O)C1c2cc3c(c(O)c2C(OC2CC(OC)C(OC4CC(O)C(OC5CC(OC)C(OC6CC(OC)C(OC(=O)C=CC(=O)O)C(C)O6)C(C)O5)C(C)O4)C(C)O2)CC1(C)O)C(=O)c1c(O)cc2c(c1C3=O)OC1OC2(C)C(OC2CC(O)C(OC3CC(C)([N+](=O)[O-])C(OC4CC(OC)C(O)C(C)O4)C(C)O3)C(C)O2)C(N(C)C)C1O` (stereo not shown) [Arugomycin], the LD50 came to 1.75 mg/kg.
